Assay results from publication PMC6073580, “DPIE [2-(1,2-diphenyl-1H-indol-3-yl)ethanamine] Augments Pro-Inflammatory Cytokine Production in IL-1β-Stimulated Primary Human Oral Cells” (International Journal of Molecular Sciences, 2018).

Molecular target: T1, IL-1R1 (interleukin-1 receptor, type I) (Homo sapiens, UniProt P14778)
T1 construct: gene IL1R1
T1 sequence (P14778 18-569): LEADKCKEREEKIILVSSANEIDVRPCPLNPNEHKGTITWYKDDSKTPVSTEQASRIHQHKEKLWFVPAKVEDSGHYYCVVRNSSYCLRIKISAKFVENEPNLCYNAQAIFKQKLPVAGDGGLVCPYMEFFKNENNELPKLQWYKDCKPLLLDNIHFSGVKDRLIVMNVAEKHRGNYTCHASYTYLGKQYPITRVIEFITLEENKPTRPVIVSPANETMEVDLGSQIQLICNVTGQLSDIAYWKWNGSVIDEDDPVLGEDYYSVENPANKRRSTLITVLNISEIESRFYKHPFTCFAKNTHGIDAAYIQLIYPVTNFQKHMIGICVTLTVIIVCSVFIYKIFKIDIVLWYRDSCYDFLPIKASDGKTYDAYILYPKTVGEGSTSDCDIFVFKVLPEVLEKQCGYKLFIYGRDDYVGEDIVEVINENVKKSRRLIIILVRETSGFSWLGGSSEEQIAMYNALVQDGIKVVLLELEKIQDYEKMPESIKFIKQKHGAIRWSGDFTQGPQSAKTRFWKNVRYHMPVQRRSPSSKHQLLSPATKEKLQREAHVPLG
Test: SPR (ProteOn XPR36), IL-1R1 immobilized by amine coupling, […] Langmuir kinetic fit; equilibrium analysis gave […]
Format: binding

Kd: 316 µM
Compound: NCCc1c(-c2ccccc2)n(-c2ccccc2)c2ccccc12 [DPIE, 2-(1,2-diphenyl-1H-indol-3-yl)ethanamine]
